According to US20260139017A1, “COMPOSITIONS AND METHODS USING REELIN IN ALZHEIMER'S DISEASE” (The General Hospital Corporation, priority 2022, published 2026):
Entries after “also recorded” stand apart in the source; their conditions may differ.

Columns and labels:
pDAB1 (Tyr232) = assay: HRECs treated 5 minutes with HEK 293T-derived mini-RELN media, pDAB1 western blot; type: cell-based, human; conditions: HEK 293T-derived media 1:1, 1:4, 1:14, 5 minutes
Procedure: The effect of in vitro treatment with RELN or miniRELN protein was also evaluated. HRECs were cultured in EBM-2 media enriched with EGM-2 Single Quots (Lonza) at 37° C. and 5% CO2 and experimentally tested at passage 7. 24 h prior experiment, cells were plated on a 6-well plate at 500,000 cells/mL. Two hours before the experiment, the cells were washed with PBS to remove residual growth media and then incubated with a starving media including EBM-2, 1% GlutaMax+0,2% Normicin. Treatments was conducted using media derived from HEK 293T cells transiently transfected for 24 h with different mini-RELN constructs in the presence of Lipofectamine 2000. […] Total protein levels were quantified via BCA assay. […] We detected pDAB1 (Tyr232; 1:1000, rabbit, #3325 Cell signaling), and Beta actin (1:5000, mouse, #66009-1-Ig, Proteintech. Antibodies were diluted using Intercept® (TBS) Blocking Buffer and incubated overnight at 4C under gentle shaking. Prior secondary antibody incubation, membranes were washes 2 times using TBS-T for 10 minutes. As secondary antibodies we used IR Dye 800n CW Goat-anti-Rabbit (925-32211, Licor) and IR Dye 680 CW Goat-anti-Mouse (925-68070, Licor) both diluted 1:10000 in blocking buffer for 1 h at room temperature under gentle shaking. Membranes were washed three times with TBS-T prior IR detection using Odyssey imager. […]

[1] = system: human retinal endothelial cells; assay: GFP mRNA cargo uptake with CTR peptide in retinal endothelial cells; type: cell-based; conditions: 5 μg mRNA mixed with peptide, 24 hours
Procedure: To evaluate this, HMRECs were cultured in a 24 well plate until 80% confluency complete endothelial growth media 2 (EGM-2, Lonza, Switzerland). For the treatments, 5 μg of mRNA were added to all the formulations. We prepared mRNA/peptide conjugates by mixing each amount of peptide ([…]) (SEQ ID NO:59) and mRNA prior to dilution in EGM-2. HMRECs were cultured with treatment media for 24 hours followed by fluorescence measurements in a microplate reader Synergy H1 (Biotek, VT) upon exciting at 482 nm and recording emission at 520 nm.

[2] = Heparin-sepharose affinity column chromatography, NaCl step gradient; type: binding
Procedure: We tested changes in binding to heparin of RELN variants chromatographically using an optimized version of a protocol previously published by our laboratory (1). Briefly, after equilibration of the heparin column (BioVision 6554-1) at R.T., columns were washed with five volumes of degassed 20 mM TRIS-HCl buffer (pH 7.5). Recombinant C-terminus RELN peptides were produced and purified by Innovagen (Sweden): (WT) […](SEQ ID NO:56), and (H3447R) […](SEQ ID NO:53). One mL of 50 μg/mL peptide (H3447 or WT, and H3447R) was recycled through the column five times and the last flow through collected for further analysis. The column was washed five times with the same buffer and the protein eluted using a 0.05 M step gradient of NaCl in 20 mM Tris-HCl (0-1M, one mL per fraction). To ensure the complete release of the protein, the column was washed with five M NaCl 20 mM Tris-HCl. Three independent experiments were conducted for C-terminus RELN WT and H3447R. All eluted fractions were analyzed spectroscopically by reading the absorbance at 280 nm using Nanodrop 2000 Spectrophotometer. Blank corrected fractions were subsequently analyzed using GraphPad Prism 8.
To assess Reelin-heparin binding affinity, Reelin variants were run on a heparin column with steps of 0.05M in a range of 0.05-1M NaCl over 20 1 mL column volumes in 20 mM Tris HCl, as described in Arboleda et. al 2019 (2). Sample fractions were eluted at an increasing NaCl step size to determine the ionic strength needed to disrupt the binding between Reelin and heparin. Therefore, the stronger the interaction, the higher concentration of salt would be needed to disrupt the bond.

VLDLr = biological target: T1, VLDLr (Homo sapiens, UniProt P98155); assay: ELISA cell-free binding of RELN variants to VLDLr
T1 construct: purchased R&D 8444-VL
Procedure: (§1) Enzyme-linked immunosorbent assay (ELISA) was used to quantify changes in binding of RELN variants (media-derived full-length or CTR-RELN) to either VLDLr or ApoEr2 following an optimized version of a previously published protocol (6). Briefly, ELISA strips (DY008, R&D Systems) were coated with one ng/μL (100 μL/well) of VLDLr (8444-VL, R&D) or ApoEr2 (TP320903, OnGene) receptors diluted in 25 mM Tris HCl, 140 mM NaCl, […], two mM CaCl2), pH 7.4 (TBS-C buffer). After 18 h at four ° C. incubation, plates were blocked one h with three % BSA (22070008-6, Bioworld), 0.05% Tween-20 (Sigma Aldrich) TBS-C buffer. We assessed binding via incubation with 100 μL/well of serial dilutions of recombinant RELN protein (Ser1221-Gln2666, 8546-MR-050, R&D) or RELN variants in TBS-C buffer for one hour at room temperature. For detection, we used goat anti-mouse RELN primary antibody (LS-C793521-100, LS-Bio, 1:2,000, 100 μL/well) as primary antibody for one h at R.T. and (1:10,000; 100 μL/well, donkey anti-goat IgG H&L, HRP, ab6885, Abcam) as secondary antibody for 30 min. at R.T. Between each of the previous steps, plates were washed four times with TBS-C buffer (200 μL/well). Plates were washed three times prior to initiating the colorimetric reaction (DY008, R&D Systems). Stop solution (50 μL/well, DY008, R&D Systems) was added upon five min. incubation and the absorbance of the samples was measured at 450 nm using the Synergy 2 microplate reader (BioTek Instruments). Processing and analysis of the data was done using Gen5 1.11 software and GraphPad Prism, respectively.

APOER2 = biological target: T2, APOER2 (Homo sapiens, UniProt Q14114); assay: ELISA cell-free binding of RELN variants to ApoEr2
T2 construct: purchased OnGene (so in the source)
T2 sequence (Q14114 33-963): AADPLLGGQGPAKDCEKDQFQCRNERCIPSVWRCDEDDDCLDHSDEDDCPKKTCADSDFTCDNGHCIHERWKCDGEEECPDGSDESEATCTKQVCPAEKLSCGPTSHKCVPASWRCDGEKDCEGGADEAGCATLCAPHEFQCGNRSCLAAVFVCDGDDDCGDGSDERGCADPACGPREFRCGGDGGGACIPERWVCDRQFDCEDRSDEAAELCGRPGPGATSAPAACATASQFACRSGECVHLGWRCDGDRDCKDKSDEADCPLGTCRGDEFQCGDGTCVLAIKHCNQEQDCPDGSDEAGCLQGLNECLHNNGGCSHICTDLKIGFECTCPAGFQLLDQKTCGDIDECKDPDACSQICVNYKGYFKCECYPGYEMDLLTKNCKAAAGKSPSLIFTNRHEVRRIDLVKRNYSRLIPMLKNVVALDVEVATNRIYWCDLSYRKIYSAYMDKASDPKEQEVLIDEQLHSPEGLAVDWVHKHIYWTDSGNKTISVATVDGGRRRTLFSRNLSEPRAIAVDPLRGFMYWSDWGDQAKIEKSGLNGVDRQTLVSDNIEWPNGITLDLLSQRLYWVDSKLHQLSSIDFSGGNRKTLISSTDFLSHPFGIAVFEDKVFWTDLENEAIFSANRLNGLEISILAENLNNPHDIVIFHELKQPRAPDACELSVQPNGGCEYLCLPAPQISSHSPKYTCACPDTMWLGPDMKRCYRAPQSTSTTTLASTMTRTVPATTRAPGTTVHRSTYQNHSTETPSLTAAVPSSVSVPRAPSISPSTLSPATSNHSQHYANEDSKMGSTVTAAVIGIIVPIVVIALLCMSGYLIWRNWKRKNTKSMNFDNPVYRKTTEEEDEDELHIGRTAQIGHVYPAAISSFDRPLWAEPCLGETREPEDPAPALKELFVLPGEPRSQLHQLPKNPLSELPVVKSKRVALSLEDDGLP
Procedure: as §1

Aβ42 = biological target: T3, Aβ42 (Homo sapiens, UniProt P05067); assay: Thioflavin T (ThT) Aβ aggregation assay; type: biochemical; conditions: Aβ42 55 μM, 10 μM peptide, vs Aβ alone
T3 construct: SensoLyte ThT O-Amyloid (1-42) Aggregation kit
Procedure: Therefore, the ThT assay can be used to quantify AB aggregation using previously developed methods (40).
We incubated CTR-RELN with Aβ and monitored aggregation using a ThioflavinT fluorescence assay normalized to the maximum ThT emission of Aβ only. We also assayed Aβ in the presence of morin, a known inhibitor (41), as a […]. Long and short WT and H3447R RELN CTR peptides were included to better understand the potential role of the H3447R mutation in amyloid pathology (FIGS. 14 and 15. Negative controls included long and short RELN CTR peptides with neutrally charged AAs (histidines) in place of basic AAs in the alpha- and beta-GAG binding sites.
A Thioflavin T (ThT) assay was also performed using synthetic Reelin peptides to assess the differential effects of these proteins on Aβ42 aggregation in vitro using Thioflavin T (SensoLyte ThT O-Amyloid (1-42) Aggregation kit, catalog no. ΔS-72214). Aβ42 was added to a final concentration of 55 μM in solutions of 10 μM of Reelin peptide variants in a transparent, no-binding 96-well plate. Samples were then mixed with 2 mM Thioflavin T dye and fluorescence was read at excitation wavelength/emission wavelength (Ex/Em)=440/484 nm at intermittent time intervals over 2 h. The plate was kept at 37° C. with 15 s shaking between reads. […] In general, it appears that the RELN Cterm domain is highly unstructured. […] If the mini-RELN includes the C-term domain only without a receptor binding domain then the protection will not involve signaling, but will still involve direct interactions with tau. If the mini-RELN includes the C-term domain and the receptor binding domain, it will have at least two protective mechanisms, namely RELN signaling and direct interactions with tau.

[3] = Isothermal titration calorimetry (ITC) of CTR-RELN with heparin; type: binding; conditions: titrated with 5 μM heparin, vs WT

T3 sequence (P05067 672-713 limits assumed): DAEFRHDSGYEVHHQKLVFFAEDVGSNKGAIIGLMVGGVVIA

IL2signalpeptide-6XHistag(SEQ ID NO: 62)-hReelin(AALeu1220-Ile2660) C-term-REELIN H3447R [225SU]
pDAB1 / Dab1 signaling activation (pDAB1 (Tyr232)): efficacy

RKQNYMMNFSRQHGLRHFYNRRRR [WT short]
GFP expression from mRNA cargo [1]: increase in expression

RKQNYMMNFSRQHGLRHFYNRRRRSLRRYP [CTR-RELN WT]
NaCl concentration of peak eluted fraction from heparin column ([2]; 0.05 M NaCl step gradient in 20 mM Tris HCl, UV 280 nm): 0.55 M NaCl
binding to and release from heparin column ([2]; affinity chromatography, NaCl gradient): bound to heparin
binding to VLDLr (VLDLr): unable to bind directly
binding to APOER2 (APOER2): unable to bind directly
Aβ aggregation (ThT fluorescence) (Aβ42; listed as Cterm domain of RELN): reduced amyloid aggregation
Aβ aggregation (ThT fluorescence) (Aβ42; listed as RELN CTR): decreased amyloid aggregation; also recorded: significantly reduced amyloid aggregation; also recorded: reduces Aβ aggregation

RKQNYMMNFSRQHGLRRFYNRRRR [H3447R short]
thermodynamics of heparin interaction [3]: more negative Gibbs free energy
